Data set [1] can be described thus: plasma half-life in the rat. In kind it is in vivo. The conditions noted are these: chez le rat, read-out: demi-vie plasmatique.
Data set [2] in a line: plasma half-life in the dog. In kind it is in vivo. The conditions noted are these: chez le chien, read-out: demi-vie plasmatique.

The values below come from patent publication EP0022117A2, “Metoclopramid resinate and medicament containing it” (Trenker, Ady, priority 1979, dated 1981).

On to `CCN(CC)CCNC(=O)c1cc(Cl)c(N)cc1OC` [Metoclopramide], for which the half-life in data set [1] and in data set [2] was 1 to 1.5 h throughout.
